Reference: patent US12077503B2, “Substituted cyclic amides and their use as herbicides” (FMC CORPORATION, priority 2015, dated 2024)
Read-outs that look alike come from different tables or passages of the source.

Assays:
Format in all cases: in vivo
[1] = system: Galium (catchweed bedstraw, Galium aparine); experiment: Test A postemergence; settings: Galium, post-emergence, 240 h, postemergence; for pest or weed control at 125 g/ha: 125 g ai/ha; for pest or weed control at 500 g/ha: 500 g ai/ha, 0 to 100 scale, 0 is no effect, 100 is complete control, read-out: Galium plant response rating
Procedure, shortened: (§1)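 Preemergence soil spray on seeded pots or post-emergence spray on 1–2 leaf plants, in loam–sand blend. Greenhouse ~10 d. Visual rating 0–100 against untreated plants.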

Kochia (Kochia scoparia) = experiment: Test A postemergence; settings: Bassia scoparia, post-emergence, 240 h, postemergence; for pest or weed control at 125 g/ha: 125 g ai/ha; for pest or weed control at 500 g/ha: 500 g ai/ha, 0 to 100 scale, 0 is no effect, 100 is complete control, read-out: Kochia plant response rating
Procedure, shortened: as §1

[2] = system: barnyardgrass (Echinochloa crus-galli); experiment: Test A postemergence; settings: Echinochloa crus-galli, post-emergence, 240 h, postemergence; for pest or weed control at 125 g/ha: 125 g ai/ha; for pest or weed control at 500 g/ha: 500 g ai/ha, 0 to 100 scale, 0 is no effect, 100 is complete control, read-out: Barnyardgrass plant response rating
Procedure, shortened: as §1

[3] = system: blackgrass (Alopecurus myosuroides); experiment: Test A postemergence; settings: Alopecurus myosuroides, post-emergence, 240 h, postemergence; for pest or weed control at 125 g/ha: 125 g ai/ha; for pest or weed control at 500 g/ha: 500 g ai/ha, 0 to 100 scale, 0 is no effect, 100 is complete control, read-out: Blackgrass plant response rating
Procedure, shortened: as §1

corn (Zea mays) = experiment: Test A postemergence; settings: Zea mays, post-emergence, 240 h, postemergence; for plant injury at 125 g/ha: visual injury vs untreated controls after approx. 10 d, 0 = no effect, 100 = complete control, read-out: Corn plant response rating (0 to 100 scale); for plant injury at 500 g/ha: 500 g ai/ha, 0 to 100 scale, 0 is no effect, 100 is complete control, read-out: Corn plant response rating
Procedure, shortened: as §1

[4] = system: giant foxtail (Setaria faberii); experiment: Test A postemergence; settings: Setaria faberi, post-emergence, 240 h, postemergence; for pest or weed control at 125 g/ha: 125 g ai/ha; for pest or weed control at 500 g/ha: 500 g ai/ha, 0 to 100 scale, 0 is no effect, 100 is complete control, read-out: Foxtail, Giant plant response rating
Procedure, shortened: as §1

[5] = system: pigweed (Amaranthus retroflexus); experiment: Test A postemergence; settings: Amaranthus retroflexus, post-emergence, 240 h, postemergence; for pest or weed control at 125 g/ha: 125 g ai/ha; for pest or weed control at 500 g/ha: 500 g ai/ha, 0 to 100 scale, 0 is no effect, 100 is complete control, read-out: Pigweed plant response rating
Procedure, shortened: as §1

[6] = system: ragweed (common ragweed, Ambrosia elatior); experiment: Test A postemergence; settings: Ambrosia artemisiifolia, post-emergence, 240 h, postemergence; for pest or weed control at 125 g/ha: 125 g ai/ha; for pest or weed control at 500 g/ha: 500 g ai/ha, 0 to 100 scale, 0 is no effect, 100 is complete control, read-out: Ragweed plant response rating
Procedure, shortened: as §1

[7] = system: ryegrass, Italian (Italian ryegrass, Lolium multiflorum); experiment: Test A postemergence; settings: Lolium multiflorum, post-emergence, 240 h, postemergence; for pest or weed control at 125 g/ha: 125 g ai/ha; for pest or weed control at 500 g/ha: 500 g ai/ha, 0 to 100 scale, 0 is no effect, 100 is complete control, read-out: Ryegrass, Italian plant response rating
Procedure, shortened: as §1

[8] = system: wheat (Triticum aestivum); experiment: Test A postemergence; settings: Triticum aestivum, post-emergence, 240 h, postemergence; for plant injury at 125 g/ha: 125 g ai/ha
Procedure, shortened: as §1

[9] = system: barnyardgrass (Echinochloa crus-galli); experiment: Test B flooded paddy test; settings: Echinochloa crus-galli, 250 g ai/ha, Flood, read-out: Barnyardgrass plant response rating
Procedure, shortened: (§2)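 Visual ratings (0 none to 100 complete control) are relative to untreated plants, taken 13–15 d after treatment in a greenhouse. Test material went straight into floodwater standing 3 cm above the soil, kept constant, on plants at the 2-leaf stage.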

[10] = system: ducksalad (Heteranthera limosa); experiment: Test B flooded paddy test; settings: Heteranthera limosa, 250 g ai/ha, Flood, read-out: Ducksalad plant response rating
Procedure, shortened: as §2

rice (Oryra sativa) = experiment: Test B flooded paddy test; settings: Oryza sativa, 250 g ai/ha, Flood, read-out: Rice plant response rating
Procedure, shortened: as §2

[11] = system: sedge, umbrella (small-flower umbrella sedge, Cyperus difformis); experiment: Test B flooded paddy test; settings: Cyperus difformis, 250 g ai/ha, Flood, read-out: Sedge, Umbrella plant response rating
Procedure, shortened: as §2

[12] = visual injury vs untreated controls after approx. 10 d, 0 = no effect, 100 = complete control, read-out: Galium plant response rating (0 to 100 scale)
[13] = visual injury vs untreated controls after approx. 10 d, 0 = no effect, 100 = complete control, read-out: Kochia plant response rating (0 to 100 scale)
[14] = visual injury vs untreated controls after approx. 10 d, 0 = no effect, 100 = complete control, read-out: Barnyardgrass plant response rating (0 to 100 scale)
[15] = visual injury vs untreated controls after approx. 10 d, 0 = no effect, 100 = complete control, read-out: Blackgrass plant response rating (0 to 100 scale)
[16] = visual injury vs untreated controls after approx. 10 d, 0 = no effect, 100 = complete control, read-out: Foxtail, Giant plant response rating (0 to 100 scale)
[17] = visual injury vs untreated controls after approx. 10 d, 0 = no effect, 100 = complete control, read-out: Pigweed plant response rating (0 to 100 scale)
[18] = visual injury vs untreated controls after approx. 10 d, 0 = no effect, 100 = complete control, read-out: Ragweed plant response rating (0 to 100 scale)
[19] = visual injury vs untreated controls after approx. 10 d, 0 = no effect, 100 = complete control, read-out: Ryegrass, Italian plant response rating (0 to 100 scale)
[20] = visual injury vs untreated controls after approx. 10 d, 0 = no effect, 100 = complete control, read-out: Wheat plant response rating (0 to 100 scale)
[21] = 0 to 100 scale where 0 is no effect and 100 is complete control
[22] = scale of 0 to 100 where 0 is no effect and 100 is complete control

Q: Which pest or weed control at 125 g/ha [1, 12] does the source give for `CSc1ccccc1NC(=O)[C@H]1C(=O)NC[C@@H]1c1ccc(F)c(C#N)c1` [Compound 1201] here?
A: 30%

Q: And the pest or weed control at 500 g/ha [1]?
A: 50%

Q: And the pest or weed control at 125 g/ha (Kochia (Kochia scoparia); [13])?
A: 40%

Q: And the pest or weed control at 500 g/ha (Kochia (Kochia scoparia))?
A: 70%

Q: And the pest or weed control at 125 g/ha [2, 14]?
A: 70%

Q: And the pest or weed control at 500 g/ha [2]?
A: 100%

Q: What about the pest or weed control at 125 g/ha [3, 15] of the same molecule?
A: 0%

Q: What about the pest or weed control at 500 g/ha [3] of the same molecule?
A: 0%

Q: And the plant injury at 125 g/ha (corn (Zea mays); 125 g ai/ha)?
A: 0%

Q: And the plant injury at 500 g/ha (corn (Zea mays))?
A: 0%

Q: What about the pest or weed control at 125 g/ha [4, 16] of the same molecule?
A: 70%

Q: What about the pest or weed control at 500 g/ha [4] of the same molecule?
A: 90%

Q: What about the pest or weed control at 125 g/ha [5, 17] of the same molecule?
A: 20%

Q: What about the pest or weed control at 500 g/ha [5] of the same molecule?
A: 60%

Q: What about the pest or weed control at 125 g/ha [6, 18] of the same molecule?
A: 0%

Q: What about the pest or weed control at 500 g/ha [6] of the same molecule?
A: 30%

Q: And the pest or weed control at 125 g/ha [7, 19]?
A: 0%

Q: And the pest or weed control at 500 g/ha [7]?
A: 0%

Q: What about the plant injury at 125 g/ha [8, 20] of the same molecule?
A: 0%

Q: What about the plant injury at 500 g/ha ([8]; 500 g ai/ha, 0 to 100 scale, 0 is no effect, 100 is complete control, read-out: Wheat plant response rating) of the same molecule?
A: 0%

Q: And the pest or weed control at 250 g/ha [9, 21]?
A: 0%

Q: What about the pest or weed control at 250 g/ha [10, 21] of the same molecule?
A: 50%

Q: And the pest or weed control at 250 g/ha (rice (Oryra sativa); [21])?
A: 0%

Q: And the pest or weed control at 250 g/ha [11, 21]?
A: 0%

Q: Which pest or weed control at 125 g/ha [1, 12] does the source give for `CN1C[C@H](c2ccc(C(F)(F)F)cc2)[C@@H](C(=O)Nc2cccc(Cl)c2F)C1=O` [Compound 1238] here?
A: 20%

Q: What about the pest or weed control at 500 g/ha [1] of the same molecule?
A: 50%

Q: What about the pest or weed control at 125 g/ha (Kochia (Kochia scoparia); [13]) of the same molecule?
A: 30%

Q: And the pest or weed control at 500 g/ha (Kochia (Kochia scoparia))?
A: 50%

Q: What about the pest or weed control at 125 g/ha [2, 14] of the same molecule?
A: 50%

Q: And the pest or weed control at 500 g/ha [2]?
A: 80%

Q: What about the pest or weed control at 125 g/ha [3, 15] of the same molecule?
A: 30%

Q: What about the pest or weed control at 500 g/ha [3] of the same molecule?
A: 50%

Q: What about the plant injury at 125 g/ha (corn (Zea mays); 125 g ai/ha) of the same molecule?
A: 20%

Q: And the plant injury at 500 g/ha (corn (Zea mays))?
A: 40%

Q: And the pest or weed control at 125 g/ha [4, 16]?
A: 60%

Q: And the pest or weed control at 500 g/ha [4]?
A: 80%

Q: What about the pest or weed control at 125 g/ha [5, 17] of the same molecule?
A: 0%

Q: And the pest or weed control at 500 g/ha [5]?
A: 30%

Q: And the pest or weed control at 125 g/ha [6, 18]?
A: 0%

Q: And the pest or weed control at 500 g/ha [6]?
A: 20%

Q: And the pest or weed control at 125 g/ha [7, 19]?
A: 20%

Q: What about the pest or weed control at 500 g/ha [7] of the same molecule?
A: 60%

Q: What about the plant injury at 125 g/ha [8, 20] of the same molecule?
A: 0%

Q: And the pest or weed control at 250 g/ha [9, 21]?
A: 0%

Q: And the pest or weed control at 250 g/ha [10, 21]?
A: 0%

Q: And the pest or weed control at 250 g/ha (rice (Oryra sativa); [21])?
A: 0%

Q: What about the pest or weed control at 250 g/ha [11, 21] of the same molecule?
A: 0%

Q: For `Cc1ccc([C@H]2CNC(=S)[C@@H]2C(=O)Nc2cccc(F)c2C)cc1C` [Compound 764], which pest or weed control at 125 g/ha ([1]; visual injury after approximately 10 d, 0 to 100 scale (0 no effect, 100 complete control), read-out: Plant response rating, Galium) is on record?
A: 0%

Q: What about the pest or weed control at 125 g/ha (Kochia (Kochia scoparia); visual injury after approximately 10 d, 0 to 100 scale (0 no effect, 100 complete control), read-out: Plant response rating, Kochia) of the same molecule?
A: 0%

Q: And the pest or weed control at 125 g/ha ([2]; visual injury after approximately 10 d, 0 to 100 scale (0 no effect, 100 complete control), read-out: Plant response rating, Barnyardgrass)?
A: 80%

Q: What about the pest or weed control at 125 g/ha ([3]; visual injury after approximately 10 d, 0 to 100 scale (0 no effect, 100 complete control), read-out: Plant response rating, Blackgrass) of the same molecule?
A: 0%

Q: What about the Corn plant response rating (crop injury, 0 = no effect, 100 = complete kill) at 125 g/ha (corn (Zea mays); 125 g ai/ha, visual injury after approximately 10 d, 0 to 100 scale (0 no effect, 100 complete control)) of the same molecule?
A: 0%

Q: And the pest or weed control at 125 g/ha ([4]; visual injury after approximately 10 d, 0 to 100 scale (0 no effect, 100 complete control), read-out: Plant response rating, Foxtail, Giant)?
A: 0%

Q: What about the pest or weed control at 125 g/ha ([5]; visual injury after approximately 10 d, 0 to 100 scale (0 no effect, 100 complete control), read-out: Plant response rating, Pigweed) of the same molecule?
A: 0%

Q: And the pest or weed control at 125 g/ha ([6]; visual injury after approximately 10 d, 0 to 100 scale (0 no effect, 100 complete control), read-out: Plant response rating, Ragweed)?
A: 0%

Q: And the pest or weed control at 125 g/ha ([7]; visual injury after approximately 10 d, 0 to 100 scale (0 no effect, 100 complete control), read-out: Plant response rating, Ryegrass, Italian)?
A: 30%

Q: What about the plant injury at 125 g/ha ([8]; visual injury after approximately 10 d, 0 to 100 scale (0 no effect, 100 complete control), read-out: Plant response rating, Wheat) of the same molecule?
A: 0%

Q: And the pest or weed control at 250 g/ha [9, 22]?
A: 50%

Q: And the pest or weed control at 250 g/ha [10, 22]?
A: 90%

Q: And the pest or weed control at 250 g/ha (rice (Oryra sativa); [22])?
A: 0%

Q: What about the pest or weed control at 250 g/ha [11, 22] of the same molecule?
A: 0%
